Literature values as cited in patent US11021501B2, “Creatine phosphate analog prodrugs, compositions and methods of use thereof” (Farmington Pharma Development, priority 2015, dated 2021).
Like-named read-outs stand apart in the source and are kept apart here.

Assays:
[1] = animals fed a diet containing up to 1%
[2] = system: creatine phosphate levels

## CN(CC(=O)O)C(=N)N.O [creatine monohydrate]
Athletes and body builders, 2-3 gm/day
  adverse side effects: without adverse side effects

## CN(CC(=O)O)C(=N)NP(=O)(O)O [Creatine phosphate, creatine phosphate]
Patients with cardiac diseases, intravenous injection up to 8 gm/day
  adverse side effects: without adverse side effects

## NC1=NCCN1CC(=O)O [cyclocreatine]
[1]
  adverse effects: do not exhibit adverse effects

## CN(CC(=O)O)C(=N)N [creatine]
[2]; creatine supplementation over weeks
  overall increase of creatine phosphate levels: < 50%
[2]; following oral creatine supplementation
  duration of increase in tissue creatine phosphate levels: > 14 days
[2]; healthy volunteers, oral creatine administration
  increase of cerebral creatine phosphate: about 10%
